In US8110682B2, “Preparation and use of compounds as aspartyl protease inhibitors” (Schering Corporation, priority 2005, dated 2012):

Target: T1, sproBACE1 (soluble human BACE1) (Homo sapiens, UniProt P56817)
T1 construct: sBACE1, corresponding to amino acids 1-454; myc (C); His (C); made in house; host or cells: Sf9 insect cells (baculovirus), secreted into medium
Experiment: BACE-1 peptide hydrolysis assay (HTRF, APPsw substrate)
Assay type: biochemical
Details: 7 nM sproBACE1, pH 5.0, 30° C.
From the text: A predicted soluble form of human BACE1 (sBACE1, corresponding to amino acids 1-454) is generated from the full length BACE1 cDNA (full length human BACE1 cDNA in pcDNA4/mycHisA construct; University of Toronto) by PCR using the advantage-GC cDNA PCR kit (Clontech, Palo Alto, Calif.). A HindIII/Pmel fragment from pcDNA4-sBACE1 myc/His is blunt ended using Klenow and subcloned into the Stu I site of pFASTBACI(A) (Invitrogen). A sBACE1mycHis recombinant bacmid is generated by transposition in DH10Bac cells(GIBCO/BRL). Subsequently, the sBACE1 mycHis bacmid construct is transfected into sf9 cells using CellFectin (Invitrogen, San Diego, Calif.) in order to generate recombinant baculovirus. […]
Proteins, are eluted from the Q-sepharose column with Buffer B (20 mM HEPES, pH 8.0, 500 mM NaCl). […] Peak protein fractions as determined by the Bradford Assay (Biorad, Calif.) are concentrated using a Centricon 30 concentrator (Millipore). sBACE1 purity is estimated to be ˜90% as assessed by SDS-PAGE and Commassie Blue staining. […]
IC50 determinations for inhibitors, (I), are determined by measuring the percent change of the relative fluorescence at 665 nm divided by the relative fluorescence at 620 nm, (665/620 ratio), in the presence of varying concentrations of I and a fixed concentration of enzyme and substrate.

T1 sequence (P56817 22-454): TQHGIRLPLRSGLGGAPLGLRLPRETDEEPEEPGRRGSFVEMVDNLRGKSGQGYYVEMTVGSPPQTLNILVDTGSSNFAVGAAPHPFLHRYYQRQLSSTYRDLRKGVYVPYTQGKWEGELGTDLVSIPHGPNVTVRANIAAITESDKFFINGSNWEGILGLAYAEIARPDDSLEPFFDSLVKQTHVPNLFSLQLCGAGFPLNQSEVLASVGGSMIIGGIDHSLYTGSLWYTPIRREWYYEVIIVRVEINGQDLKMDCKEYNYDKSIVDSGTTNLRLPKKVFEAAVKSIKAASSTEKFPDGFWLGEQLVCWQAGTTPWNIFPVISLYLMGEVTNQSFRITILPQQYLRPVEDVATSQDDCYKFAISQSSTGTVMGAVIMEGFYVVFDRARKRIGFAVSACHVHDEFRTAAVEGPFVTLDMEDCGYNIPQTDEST

Ki: 1360 nM
SMILES: CN1C(=N)NC(C)(c2cccc(-c3cc(Cl)cc(Cl)c3)c2)N(C)C1=O (stereo not shown) [Example 7]
